Assay results from patent US20160362416A1, “ANTIVIRAL COMPOUNDS” (Gilead Sciences, Inc., priority 2012, published 2016).
pEC50: −log10 of the molar value.

Columns and labels:
[1] = test system: stable HCV 1b RLuc replicon cells (genotype 1b Con1 replicon); test: HCV genotype 1b RLuc replicon reporter assay; assay type: cell-based; conditions: Hepatitis C virus; stable genotype 1b Con1 RLuc replicon cells, 72 hours
How it was run: (§1)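 Chimeric replicons for 3a and 4a use a Pi-RLuc reporter and were transiently transfected into Huh-Lunet cells; the 2b chimera (RLuc-Neo) was likewise transient in Huh-Lunet; 1b cells are stable. Cells were exposed to 3-fold serial compound dilutions for 72 h, then lysed. EC50s came from non-linear regression of Renilla luciferase signal.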

[2] = test system: stable HCV 1a RLuc replicon cells (genotype 1a H77 replicon); test: HCV genotype 1a RLuc replicon reporter assay; assay type: cell-based; conditions: Hepatitis C virus; stable genotype 1a H77 RLuc replicon cells, 72 hours
[3] = IV and PO single dose pharmacokinetic studies in SD rats; assay type: in vivo; conditions: Sprague-Dawley, rat, plasma, male SD rats, IV infusion 1 mg/kg, oral gavage 2 mg/kg, read-out: Rat % F
Description: IV and PO Single Dose Pharmacokinetic Studies in SD Rats: The pharmacokinetics of selected compounds was characterized in male Sprague-Dawley (SD) rats (250-300 g). In this study, two groups of naïve purebred SD rats (N=3 per group, fasted over night) received the selected compound either as an intravenous (IV) infusion (1 mg/kg over 30 minutes) via the jugular vein or by oral gavage (2 mg/kg). The intravenous (IV) dosing vehicle was 5% ethanol, 35% polyethylene glycol 400 (PEG 400) and 60% water pH 2.0. The oral dosing vehicle was 5% ethanol, 55% PEG 400 and 40% citrate buffer pH 2.2.
Serial blood samples (approximately 0.3 mL each) were collected from jugular vein or other suitable vein at specified time points. For the IV infusion group, the blood samples were collected predose and at 0.25, 0.48, 0.58, 0.75, 1.5, 3, 6, 8, 12 and 24 hours after the start of infusion. For the oral group, the blood samples were collected predose and at 0.25, 0.50, 1, 2, 4, 6, 8, 12 and 24 hours after dosing. The blood samples were collected into Vacutainer™ tubes containing EDTA-K3 as the anti-coagulant and were centrifuged at approximately 4° C. to obtain plasma. The plasma samples were stored at −20° C. until analysis by LC/MS/MS.
A bioanalytical method utilizing high performance liquid chromatography coupled to tandem mass spectrometry (LC/MS/MS) was developed for analysis of the selected compound in rat plasma. Detection was performed using selected reaction monitoring (SRM); Ions representing the precursor (M+H)^+ species was selected in quadrupole 1 (Q1) and collided with argon gas in the collision cell (Q2) to generate specific product ion, which was subsequently monitored by quadrupole 3 (Q3). Standard curve and quality control samples were prepared in male rat plasma and processed in the same way as the test samples to generate quantitative data.
Pharmacokinetic parameters were generated using non-compartmental pharmacokinetic analysis (Phoenix WinNonlin, version 6.3). Values below the lower limit of quantification (LLOQ) were assigned a value of zero if predose and treated as missing thereafter. Area under the curve (AUC) was calculated using the linear trapezoidal rule. The oral bioavailability (% F) was determined by comparison of the area under the curve (AUC) of the compound and/or a metabolite generated in plasma following oral administration to that generated following intravenous administration.

[4] = test system: L31V/Y93H in genotype 1b NS5A replicon; test: Resistance mutant replicon assay, genotype 1b NS5A L31V/Y93H; assay type: cell-based, HCV; conditions: Hepatitis C virus, read-out: 1b L31V/Y93H (nM)
Description: (§2) Evaluation of cell-based anti-HCV activity: Antiviral potency (EC50) was determined using a Renilla luciferase (RLuc)-based HCV replicon reporter assay. To perform the assay for genotype 1 and 2a JFH-1, stable HCV 1a RLuc replicon cells (harboring a dicistronic genotype 1a H77 replicon that encodes a RLuc reporter), stable HCV lb RLuc replicon cells (harboring a dicistronic genotype 1b Conl replicon that encodes a RLuc reporter), or stable HCV 2a JFH-1 Rluc replicon cells (harboring a dicistronic genotype 2a JFH-1 replicon that encodes a RLuc reporter; with L31 present in NS5A) were dispensed into 384-well plates for EC50 assays. To perform the assay for genotype 2a (with M31 present in NS5A) or 2b, NS5A chimeric genotype 2a JFH-1 replicons that encodes a RLuc-Neo reporter and either genotype 2a J6 strain NS5A gene or genotype 2b MD2b-1 strain NS5A gene (both with M31 present) respectively, were either transiently transfected (t) into Huh-Lunet cells or were established as stably replicating replicon cells (s) is provided. Either cells were dispensed into 384-well plates for EC50 assays. To perform the assay for genotype 3 and 4, NS5A chimeric genotype 1b Conl replicons that encodes a Pi-RLuc reporter and either genotype 3a S52 strain NS5A gene or genotype 4a ED43 strain NS5A gene respectively, were transiently transfected (t) into Huh-Lunet cells, which were subsequently dispensed into 384-well plates. Compounds were dissolved in DMSO at a concentration of 10 mM and diluted in DMSO either manually or using an automated pipeting instrument. Serially 3-fold diluted compounds were either manually mixed with cell culture media and added to the seeded cells or directly added to the cells using an automated instrument. DMSO was used as a negative (solvent; no inhibition) control, and the protease inhibitor ITMN-191 was included at a concentration >100×EC50 as a positive control. 72 hours later, cells were lysed and Renilla luciferase activity quantified as recommended by the manufacturer (Promega-Madison, Wis.). Non-linear regression was performed to calculate EC50 values.
(§3) To determine the antiviral potency (EC50) against resistance mutants, resistance mutations, including M28T, Q30R, Q30H, Q30E, L31M, Y93C, Y93H, and Y93N in genotype 1a NS5A, Y93H and L31V/Y93H in genotype 1b NS5A, and Y93H for in genotype 3a NS5A, were introduced individually into either 1a Pi-Rluc or 1b Pi-Rluc replicons by site directed mutagenesis. Replicon RNA of each resistant mutant was transiently transfected into Huh-7-derived cured-51 cells and antiviral potency was determined on these transfected cells as described above.

[5] = test system: NS5A chimeric genotype 2a JFH-1 replicon with genotype 2a J6 strain NS5A gene (M31); test: HCV genotype 2a J6 NS5A chimeric replicon assay, transient (t); assay type: cell-based; conditions: Hepatitis C virus, 72 h, read-out: 2a J6 (t) (nM)
[6] = test system: Y93N in genotype 1a NS5A replicon; test: Resistance mutant replicon assay, genotype 1a NS5A Y93N; assay type: cell-based, HCV; conditions: Hepatitis C virus, read-out: 1a Y93N (nM)
How it was run: (§4)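 Site-directed mutagenesis → mutant Pi-RLuc replicon RNA → transient transfection, cured-51 Huh-7 cells → 3-fold serial cpd dilutions from DMSO stock, 72 h → RLuc read → EC50, non-linear regression.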

[7] = test system: stable HCV 2a JFH-1 Rluc replicon cells (L31 present in NS5A); test: HCV genotype 2a JFH-1 RLuc replicon reporter assay; assay type: cell-based; conditions: Hepatitis C virus, 72 h, read-out: 2a JFH (nM)
[8] = test system: NS5A chimeric genotype 2a JFH-1 replicon with genotype 2b MD2b-1 strain NS5A gene (M31); test: HCV genotype 2b NS5A chimeric replicon assay, transient (t); assay type: cell-based; conditions: Hepatitis C virus, 72 h, read-out: 2b (t) (nM)
How it was run: as §1

[9] = test system: Y93H in genotype 1a NS5A replicon; test: Resistance mutant replicon assay, genotype 1a NS5A Y93H; assay type: cell-based, HCV; conditions: Hepatitis C virus, read-out: 1a Y93H (nM)
How it was run: as §4

[10] = test system: Q30R in genotype 1a NS5A replicon; test: Resistance mutant replicon assay, genotype 1a NS5A Q30R; assay type: cell-based, HCV; conditions: Hepatitis C virus, read-out: 1a Q30R (nM)
Description: as §2, §3

[11] = test system: Y93H in genotype 3a NS5A replicon; test: Resistance mutant replicon assay, genotype 3a NS5A Y93H; assay type: cell-based, HCV; conditions: Hepatitis C virus, read-out: 3a Y93H (nM)
How it was run: as §4

[12] = test system: Q30E in genotype 1a NS5A replicon; test: Resistance mutant replicon assay, genotype 1a NS5A Q30E; assay type: cell-based, HCV; conditions: Hepatitis C virus, read-out: 1a Q30E (nM)
How it was run: as §4

[13] = test system: NS5A chimeric genotype 2a JFH-1 replicon with genotype 2b MD2b-1 strain NS5A gene (M31); test: HCV genotype 2b NS5A chimeric replicon assay, stable (s); assay type: cell-based; conditions: Hepatitis C virus, 72 h, read-out: 2b (s) (nM)
[14] = test system: NS5A chimeric genotype 1b Con1 replicon with genotype 3a S52 strain NS5A gene; test: HCV genotype 3a NS5A chimeric replicon assay; assay type: cell-based; conditions: Hepatitis C virus, 72 h, read-out: 3a (nM)
How it was run: as §1

[15] = test system: NS5A chimeric genotype 1b Con1 replicon with genotype 4a ED43 strain NS5A gene; test: HCV genotype 4a NS5A chimeric replicon assay; assay type: cell-based; conditions: Hepatitis C virus, 72 h, read-out: 4a (s) (nM)

Row | Compound | pEC50 [1] | pEC50 [2] | bioavailability [3] [%] | EC50 [4] [nM] | EC50 [5] [nM] | EC50 [6] [nM] | EC50 [7] [nM] | EC50 [8] [nM] | EC50 [9] [nM] | EC50 [10] [nM] | EC50 [11] [nM] | EC50 [12] [nM] | EC50 [13] [nM] | EC50 [14] [nM] | EC50 [15] [nM]
1 | COC(=O)N[C@H](C(=O)N1[C@@H](C)CC[C@H]1c1ncc(-c2ccc3c(c2)COc2cc4c(ccc5nc([C@@H]6CCCN6C(=O)[C@@H](NC(=O)OC)C6CCOCC6)[nH]c54)cc2-3)[nH]1)C(C)C [Comp 14, reference compound] | 10.60 | 10.60 | 6.88 | 0.13 | 0.053 | 1.75 | 0.01 | 0.036 | 3.66 | 1.2 |  |  |  |  | 
2 | COC(=O)N[C@H](C(=O)N1[C@@H](C)CC[C@H]1c1ncc(-c2ccc3c(c2)COc2cc4c(ccc5nc([C@@H]6CC[C@H](C)N6C(=O)[C@@H](NC(=O)OC)[C@H]6CCCOC6)[nH]c54)cc2-3)[nH]1)C(C)C [Example AI, Methyl{(1S)-2-[(2S,5S)-2-methyl-5-(9-{2-[(2S,5S)-1-{(2S)-2-[(methoxycarbonyl)amino]-3-methylbutanoyl}-5-methylpyrrolidin-2-yl]-1H-imidazol-5-yl}-1,11-dihydroisochromeno[4′,3′:6,7]naphtho[1,2-d]imidazol-2-yl)pyrrolidin-1-yl]-2-oxo-1-[(3R)-tetrahydro-2H-pyran-3-yl]ethyl}carbamate] | 10.74 | 10.85 |  | 21.4 | 0.041 | 4.05 | 0.017 |  |  | 0.208 | 2.84 | 2.11 | 0.058 | 0.028 | 0.012
3 | COC(=O)N[C@H](C(=O)N1[C@@H](C)CC[C@H]1c1ncc(-c2ccc3c(c2)COc2cc4c(ccc5nc([C@@H]6CC[C@H](C)N6C(=O)[C@@H](NC(=O)OC)[C@@H]6CCCOC6)[nH]c54)cc2-3)[nH]1)C(C)C [Example AJ, Methyl{(1S)-2-[(2S,5S)-2-methyl-5-(9-{2-[(2S,5S)-1-{(2S)-2-[(methoxycarbonyl)amino]-3-methylbutanoyl}-5-methylpyrrolidin-2-yl]-1H-imidazol-5-yl}-1,11-dihydroisochromeno[4′,3′:6,7]naphtho[1,2-d]imidazol-2-yl)pyrrolidin-1-yl]-2-oxo-1-[(3S)-tetrahydro-2H-pyran-3-yl]ethyl}carbamate] | 10.68 | 10.80 |  | 44 | 0.059 | 4.3 | 0.019 |  |  | 0.16 | 3.73 | 2.7 | 0.057 | 0.035 | 0.018
